Laboratory results published in the supplement of paper PMC10307832.

Tests used:
Test in all cases: relative viability (nuclei count vs DMSO), 5 days (fraction); higher = more cells survive
Vismodegib + Navitoclax = compound: CS(=O)(=O)c1ccc(C(=O)Nc2ccc(Cl)c(-c3ccccn3)c2)c(Cl)c1 [Vismodegib] + CC1(C)CCC(c2ccc(Cl)cc2)=C(CN2CCN(c3ccc(C(=O)NS(=O)(=O)c4ccc(N[C@H](CCN5CCOCC5)CSc5ccccc5)c(S(=O)(=O)C(F)(F)F)c4)cc3)CC2)C1 [Navitoclax] (partner 0.5 µM)
Summary of the method: (§1)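 One day after seeding in 1536-well plates, lung cancer cell lines were dosed by pin tool. Dosing was either single-drug or a fixed anchor-drug dose plus five library-drug doses (not always all listed) in √10 steps. After 5 days, nuclei were stained in one fix-and-stain step and counted on 4× images, and relative viability is the nuclei count of treated wells over that of vehicle wells, given as the median of duplicate plates.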

[1] = compound: N#CC[C@H](C1CCCC1)n1cc(-c2ncnc3[nH]ccc23)cn1 [Ruxolitinib] + CC(=O)c1c(C)c2cnc(Nc3ccc(N4CCNCC4)cn3)nc2n(C2CCCC2)c1=O [Palbociclib] (partner 0.5 µM)
Summary of the method: as §1

Ruxolitinib + Luminespib = compound: N#CC[C@H](C1CCCC1)n1cc(-c2ncnc3[nH]ccc23)cn1 [Ruxolitinib] + CCNC(=O)c1noc(-c2cc(C(C)C)c(O)cc2O)c1-c1ccc(CN2CCOCC2)cc1 [Luminespib] (partner 0.01 µM)
Summary of the method: as §1

Ruxolitinib + Lapatinib = compound: N#CC[C@H](C1CCCC1)n1cc(-c2ncnc3[nH]ccc23)cn1 [Ruxolitinib] + CS(=O)(=O)CCNCc1ccc(-c2ccc3ncnc(Nc4ccc(OCc5cccc(F)c5)c(Cl)c4)c3c2)o1 [Lapatinib] (partner 2 µM)
Summary of the method: as §1

Row | Cell Line | relative viability (Vismodegib + Navitoclax; first compound 0.08 µM) | relative viability (Vismodegib + Navitoclax; first compound 0.253 µM) | relative viability (Vismodegib + Navitoclax; first compound 0.8 µM) | relative viability (Vismodegib + Navitoclax; first compound 2.53 µM) | relative viability (Vismodegib + Navitoclax; first compound 8 µM) | relative viability ([1]; first compound 0.08 µM) | relative viability ([1]; first compound 0.253 µM) | relative viability ([1]; first compound 0.8 µM) | relative viability ([1]; first compound 2.53 µM) | relative viability ([1]; first compound 8 µM) | relative viability (Ruxolitinib + Luminespib; first compound 0.08 µM) | relative viability (Ruxolitinib + Luminespib; first compound 0.253 µM) | relative viability (Ruxolitinib + Luminespib; first compound 0.8 µM) | relative viability (Ruxolitinib + Luminespib; first compound 2.53 µM) | relative viability (Ruxolitinib + Luminespib; first compound 8 µM) | relative viability (Ruxolitinib + Lapatinib; first compound 0.08 µM) | relative viability (Ruxolitinib + Lapatinib; first compound 0.253 µM) | relative viability (Ruxolitinib + Lapatinib; first compound 0.8 µM) | relative viability (Ruxolitinib + Lapatinib; first compound 2.53 µM) | relative viability (Ruxolitinib + Lapatinib; first compound 8 µM)
1 | 201T | 1.23 | 1.18 | 1.15 | 1.23 | 1.17 | 0.366 | 0.362 | 0.407 | 0.433 | 0.397 | 1.1 | 1.22 | 1.24 | 1.17 | 1.18 | 1.1 | 1.14 | 1.11 | 1.28 | 1.26
2 | A549 | 1.02 | 1.13 | 1.28 | 1.18 | 1.23 | – | – | – | – | – | – | – | – | – | – | 0.998 | 1.03 | 1.04 | 0.918 | 0.636
3 | A-427 | 0.988 | 0.897 | 0.889 | 1 | 0.976 | 0.557 | 0.516 | 0.556 | 0.499 | 0.464 | – | 0.969 | 1 | 0.715 | 0.813 | 0.875 | 1.14 | 1.09 | 1.11 | 0.967
4 | ABC-1 | – | – | – | – | – | – | 0.831 | 0.652 | 0.808 | 0.754 | – | 0.736 | 0.987 | 0.509 | 0.437 | 1.19 | 1.19 | 1.4 | 1.11 | 1.17
5 | BEN | 0.0646 | 0.062 | 0.0698 | 0.0746 | 0.0684 | 0.488 | 0.456 | 0.504 | 0.503 | 0.51 | 0.339 | 0.64 | 0.519 | 0.377 | 0.33 | 0.798 | 0.76 | 0.766 | 0.767 | 0.777
6 | CAL-12T | 1.21 | 0.965 | 1.33 | 1.23 | 1.24 | 0.316 | 0.334 | 0.461 | 0.363 | 0.223 | 0.364 | 0.771 | 0.448 | 0.305 | 0.335 | – | 0.643 | 0.88 | 0.697 | 0.623
7 | COR-L23 | 1.02 | 1.03 | 0.959 | 0.951 | 1.14 | 0.343 | 0.273 | 0.371 | 0.248 | 0.222 | 0.749 | 0.738 | 0.676 | 0.511 | 0.519 | 1 | 0.9 | 1.16 | 0.744 | 0.823
8 | COR-L 105 | 0.733 | 0.721 | 1.02 | 0.777 | 0.781 | – | 0.386 | 0.387 | 0.392 | 0.365 | 0.707 | 0.93 | 0.789 | 0.538 | 0.511 | 0.394 | 0.341 | 0.454 | 0.461 | 0.333
9 | Calu-6 | 0.712 | 0.781 | 0.817 | 0.877 | 0.845 | – | – | – | – | – | – | – | – | – | – | 1.09 | 1.09 | 1.17 | 1 | 0.647
10 | ChaGo-K-1 | 0.994 | 1.14 | 0.956 | 0.977 | 0.986 | 0.909 | 0.924 | 0.906 | 0.8 | 0.789 | 0.635 | 0.655 | 0.605 | 0.492 | 0.517 | – | – | – | – | –
11 | EBC-1 | 0.412 | 0.39 | 0.436 | 0.397 | 0.643 | – | – | – | – | – | – | – | – | – | – | 0.21 | – | 0.216 | 0.232 | 0.195
12 | EKVX | 0.664 | 0.901 | 0.999 | 0.899 | 0.914 | – | 0.358 | 0.393 | 0.34 | 0.333 | 0.85 | 0.877 | 0.975 | 0.816 | 0.804 | 0.224 | 0.194 | 0.231 | 0.207 | 0.188
13 | EMC-BAC-2 | 1.11 | 1.15 | 1.23 | 1.13 | 1.19 | 0.518 | 0.507 | 0.58 | 0.47 | 0.418 | 1.09 | 1.16 | 1.15 | 1.04 | 0.947 | 0.945 | 0.786 | 0.974 | 0.901 | 0.713
14 | EPLC-272H | 1.01 | 1.2 | 1.09 | 1.09 | 1.09 | 0.285 | 0.331 | 0.38 | 0.365 | 0.412 | 0.632 | 0.224 | 0.241 | 0.295 | 0.174 | 0.164 | 1.08 | 0.953 | 1 | 0.671
15 | H3255 | 0.614 | 0.441 | 0.462 | 0.439 | 0.518 | 0.307 | 0.297 | 0.315 | 0.266 | 0.263 | 0.85 | 0.881 | 1.07 | 0.841 | 0.865 | – | 0.236 | 0.249 | 0.28 | 0.226
16 | HARA | 1.13 | 1.15 | 1.16 | 1.11 | 1.14 | 0.301 | 0.273 | 0.286 | 0.228 | 0.253 | 0.9 | 0.83 | 0.897 | 0.839 | 0.342 | 0.766 | 0.631 | 0.76 | 0.7 | 0.675
17 | HCC-15 | 0.675 | 0.678 | 0.689 | 0.665 | 0.676 | 0.708 | 0.718 | 0.759 | 0.663 | 0.635 | 0.345 | 0.216 | 0.555 | 0.302 | 0.203 | 0.859 | 0.905 | 0.869 | 0.786 | 0.779
18 | HCC-44 | 1.05 | 0.893 | 1.05 | 0.989 | 0.87 | 0.995 | 1.03 | 0.98 | 0.942 | 0.947 | 1.02 | 1.07 | 1.2 | 0.689 | 0.527 | 1.06 | 1.07 | 1.04 | 1.01 | 0.783
